In the METLIN SMRT retention time set (Domingo-Almenara et al. 2019) one finds RP-LC retention time data, which are given here for 60 compounds.

This series is described as follows: gradient 5% acetonitrile 3 min, to 50% in 2 min, to 85% in 15 min, held 3 min, 100 µL/min. Conditions: column: Zorbax Extend-C18 2.1 x 50 mm; eluents: water / acetonitrile, 0.1% formic acid. In outline:
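Each retention time is based on an adduct peak selected computationally and verified by manual inspection. Measurements used HPLC–quadrupole time-of-flight mass spectrometry in positive and negative ionization mode on mixtures of ~100 pure standards. Chromatography ran on a Zorbax Extend-C18 column (2.1 × 50 mm, 1.8 μm) at 100 μL/min with water and acetonitrile, each containing 0.1% formic acid, and dead and dwell volumes of 40 μL and 900 μL.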
As for `CCn1nccc1C(=O)NCC1Cn2cccc2C(=O)N1CC(C)C` (stereo not given), the RP-LC retention time stood at 698 s.

The compound `CCC(=O)N1CCc2cc(N3CC(C(=O)NCc4ccccc4)CC3=O)ccc21` (stereo not given) came in with an RP-LC retention time of 699 s.

For the compound `COc1ccc(NC(=O)c2cc(NC(=O)C3CCC3)cc3nc(C)ccc23)cc1OC`, the RP-LC retention time amounted to 640 s.

For `CNC(=O)C1CC(=O)N(c2ccc(C)cc2)C1` (stereo not given), the RP-LC retention time was 626 s.

Compound `CCOc1cccc(CNc2nc3ccncc3n(CC)c2=O)c1` registered an RP-LC retention time of 665 s.

For the compound `COC(=O)c1ccccc1NC(=O)CSc1nc2ccccc2s1`, the RP-LC retention time came to 1030 s.

As to `CC(C)CN1C(=O)c2cccn2CC1CNC(=O)c1n[nH]c(=O)c2ccccc12` (stereo not given), the RP-LC retention time came to 689 s.

As for `CC(C)c1ccc(NC(=O)c2cn(C)nc2S(=O)(=O)N2CCSCC2)cc1`, the RP-LC retention time amounted to 944 s.

`CCSc1nnc2c(n1)OC(c1cccn1C)N(C(C)=O)c1ccccc1-2` (stereo not given) yielded an RP-LC retention time of 788 s.

`Cn1c(=O)sc2cc(S(=O)(=O)N3CCC(C(=O)Nc4ccccc4)CC3)ccc21` had an RP-LC retention time of 835 s.

In turn, `COc1ccc(N2C=C(C#N)S(=O)(=O)c3c(F)cccc32)c(OC)c1` came in with an RP-LC retention time of 893 s.

Take `CCOc1cc(CNc2ccc3[nH]c(=O)[nH]c3c2)cc(Br)c1OCC`: the RP-LC retention time worked out at 717 s.

Take `COc1cccc(C2Cn3nnc(-c4nc(-c5ccc(Br)cc5)no4)c3CO2)c1` (stereo not given): the RP-LC retention time is 1240 s.

`CCc1nc(C2CN(CCc3ccccc3)CC23CCCC3)no1` (stereo not given) came in with an RP-LC retention time of 670 s.

Turning to `CCCNC(=O)C1CCCN(c2ccc(SCC(=O)NCc3cc(F)cc(F)c3)nn2)C1` (stereo not given), the RP-LC retention time was 646 s.

The compound `Cc1nc(-c2cc3cccc(C)c3nc2N2CCN(c3ccccc3F)CC2)no1` had an RP-LC retention time of 733 s.

As for `O=c1ccc(N2CCCN(S(=O)(=O)c3ccc(F)cc3)CC2)nn1-c1ccccc1`, the RP-LC retention time was found to be 846 s.

As for `CC1=NS(=O)(=O)N(Cc2ccccc2)C=C1C(=O)OCc1ccccc1Cl`, the RP-LC retention time worked out at 1160 s.

With `Cc1ccc(C(=O)Nc2cc(-c3ccsc3)no2)c(C)c1`, the RP-LC retention time was determined as 1030 s.

Compound `Cc1ccc(Nc2c(-c3ccc(Br)cc3)nc3cnccn23)c(Br)c1` returned an RP-LC retention time of 1230 s.

Compound `CCn1nnc2ccc(-c3noc(C(C)NC(=O)c4ccccc4)n3)cc21` (stereo not given) returned an RP-LC retention time of 689 s.

In turn, `Cc1ccc(Nc2c(-c3cc(Br)ccc3O)nc3ncccn23)cc1Cl` had an RP-LC retention time of 1170 s.

`COc1cccc(S(=O)(=O)N2CCC(N3CCN(Cc4ccccc4)C(=O)C3=O)CC2)c1`: the RP-LC retention time was 763 s.

Compound `COc1ccc(-c2ccc(C#N)c(SCC(=O)N3CCN(C)CC3)n2)cc1` yielded an RP-LC retention time of 583 s.

As to `O=C(CCc1nc2ccccc2n(CC(=O)Nc2ccc3c(c2)OCCO3)c1=O)NCc1ccccc1`, the RP-LC retention time was found to be 782 s.

`CCn1cc(S(=O)(=O)NCc2ccccc2F)c2cccnc21`: the RP-LC retention time was found to be 799 s.

Take `CCOc1ccc(CCNC(=O)c2cc(S(=O)(=O)N3CCCC3)c(C)n2C)cc1OCC`: the RP-LC retention time amounted to 951 s.

Take `N#Cc1ccc(C(=O)NCC(=O)N2CCCc3ccccc32)cc1`: the RP-LC retention time stood at 773 s.

In the case of `CCCC(CCC)C(=O)N1CCCN(C2=NS(=O)(=O)C(c3ccc(C)cc3)=C2C)CC1`, the RP-LC retention time amounted to 1010 s.

In the case of `CCOC(=O)c1c(C)[nH]c(C)c1S(=O)(=O)NCCCN1CCc2ccccc2C1`, the RP-LC retention time came to 651 s.

As for `COc1ccc(-c2nnc(Cc3nc(-c4ccc5c(c4)OCO5)no3)o2)cc1OC`, the RP-LC retention time came out at 940 s.

On to `O=C(Cn1cnc2nc3c(cc2c1=O)CCCC3)Nc1ccc(Br)cc1F`, for which the RP-LC retention time is 791 s.

For the compound `O=C(CC1CCCC1)NCCC1CCN(C(=O)Nc2ccccc2)CC1`, the RP-LC retention time came out at 784 s.

Compound `Cc1cc(C)cc(NC(=O)C2CCN(S(=O)(=O)c3cc(-c4noc(C5CC5)n4)cs3)CC2)c1` registered an RP-LC retention time of 1020 s.

In turn, `Cc1nnc2c(=O)n(CC(=O)NCc3cc(F)cc(F)c3)c3cccnc3n12` came in with an RP-LC retention time of 686 s.

`O=C(Cn1nc(-c2ccco2)ccc1=O)N1CCN(c2ncccn2)CC1` returned an RP-LC retention time of 615 s.

With `COc1ccc(C)cc1NC(=O)C1CCc2nc(N3CCOCC3)ncc2C1` (stereo not given), the RP-LC retention time is 832 s.

For the compound `O=C1CCCN1CCCN(CC(=O)N1CCNCC1)C(=O)c1ccc(Cl)cc1`, the RP-LC retention time was 586 s.

For `Cc1ccc(C(=O)N2CCCC(COc3ccc(C(=O)N4CCCC4)cc3)C2)cc1C` (stereo not given), the RP-LC retention time stood at 940 s.

In the case of `CN(CC1CCOC1)C(=O)Nc1cccc(Cl)c1F` (stereo not given), the RP-LC retention time was 733 s.

`COc1cccc(-c2noc(C3CCCN3C(=O)Nc3ccc(OC)cc3C)n2)c1` (stereo not given) showed an RP-LC retention time of 900 s.

`CCC(C)C(NC(=O)Cc1ccccc1Cl)C(=O)Nc1nc2ccccc2[nH]1` (stereo not given) had an RP-LC retention time of 776 s.

`Cc1noc(C)c1S(=O)(=O)N1CCC(OCCOCc2ccccc2)CC1` had an RP-LC retention time of 1020 s.

With `O=C(c1cncc(Br)c1)N1CCCC(c2nnc(-c3ccccc3)o2)C1` (stereo not given), the RP-LC retention time stood at 777 s.

Consider `CCc1cccc(NC(=O)N2CCN(c3cc(C)nc(N4CCCC4)n3)CC2)c1`, for which the RP-LC retention time came out at 704 s.

Consider `CCCN1C(=O)C(CC(=O)NCC(C)C)Sc2ncccc21` (stereo not given), for which the RP-LC retention time is 741 s.

The compound `Cc1cc(=O)n(CC(=O)Nc2ccccc2)c(-c2ccc(Cl)cc2)n1` returned an RP-LC retention time of 1100 s.

On to `O=C(c1ccco1)N1CCc2cc(-c3csc(C4CC4)n3)ccc21`, for which the RP-LC retention time is 1070 s.

Compound `Cc1ccc(CCNC(=O)c2cc3n(n2)CC(C)(C(=O)NC2CCCC2)N(C)C3=O)cc1` (stereo not given) registered an RP-LC retention time of 809 s.

As to `CCc1noc(C2CCCCN2CC(=O)NCCc2cccs2)n1` (stereo not given), the RP-LC retention time was determined as 794 s.

`CCOc1cccc(-c2noc(Cc3nnc(-c4ccc(F)cc4)o3)n2)c1`: the RP-LC retention time was found to be 1080 s.

Regarding `Cc1nnc(C2CCCCCN2C(=O)c2cn[nH]c2)o1` (stereo not given), the RP-LC retention time came out at 597 s.

For `COc1ccc(NC(=O)N2CC(C)Oc3ccc(C)cc32)cc1` (stereo not given), the RP-LC retention time was 945 s.

`O=C(CN1C(=O)CC(c2ccccc2)=Nc2ccccc21)NCc1ccccc1` yielded an RP-LC retention time of 919 s.

For `Cc1ccsc1CCNC(=O)C1CCN(C(=O)c2cc(-c3cccnc3)n[nH]2)CC1`, the RP-LC retention time worked out at 625 s.

`CCN(CC)CCCNC(=O)Cn1c2ccccc2c2cnn(C)c(=O)c21` showed an RP-LC retention time of 596 s.

Consider `O=c1c2sccc2n(Cc2nc(-c3ccc(F)c(Cl)c3)no2)c(=O)n1-c1ccc(F)cc1`, for which the RP-LC retention time is 1090 s.

With `COCCNC(=O)c1ncoc1-c1ccccc1C(=O)N1CCCC1`, the RP-LC retention time is 635 s.

Compound `COCC(=O)N1CCCCC1c1nncn1Cc1ccccc1` (stereo not given) showed an RP-LC retention time of 612 s.

Turning to `Cc1ccc(CNS(=O)(=O)c2cc3c(s2)CCN(C(=O)C2CCC2)C3)cc1`, the RP-LC retention time worked out at 943 s.
